Results taken from ChEMBL document CHEMBL1201862, “PubChem BioAssay data set” (2004).
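The compound was tested at five concentrations on cells cultured in 96-well plates, with a 48-hour exposure period. Abbreviation: GI50, concentration required for 50% inhibition of growth.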 The source made the active and inactive calls. No stated cut-off is given here; in the data, active = GI50 up to about 1.1 µM and inactive = higher.

Columns and labels:
Assay in all cases: inhibition of tumour cell growth, NCI panel, 48 h
M14 = system: M14
IGROV-1 = system: IGROV-1
OVCAR-8 = system: OVCAR-8
DU-145 = system: DU-145
SF-539 = system: SF-539
A498 = system: A498
MDA-MB-435 = system: MDA-MB-435
K562 = system: K562
PC-3 = system: PC-3
SN12C = system: SN12C
CAKI-1 = system: CAKI-1
COLO 205 = system: COLO 205
RXF 393 = system: RXF 393
OVCAR-5 = system: OVCAR-5
OVCAR-3 = system: OVCAR-3
EKVX = system: EKVX
SR = system: SR
SK-MEL-28 = system: SK-MEL-28
NCI-H460 = system: NCI-H460
OVCAR-4 = system: OVCAR-4

Row | Compound | GI50 (M14) | GI50 (IGROV-1) | GI50 (OVCAR-8) | GI50 (DU-145) | GI50 (SF-539) | GI50 (A498) | GI50 (MDA-MB-435) | GI50 (K562) | GI50 (PC-3) | GI50 (SN12C) | GI50 (CAKI-1) | GI50 (COLO 205) | GI50 (RXF 393) | GI50 (OVCAR-5) | GI50 (OVCAR-3) | GI50 (EKVX) | GI50 (SR) | GI50 (SK-MEL-28) | GI50 (NCI-H460) | GI50 (OVCAR-4)
1 | CCCCCCN(CCCCCC)CCC(=O)c1ccc2cc(Br)c3ccccc3c2c1 | 82.6 µM (inactive) | 40.3 µM (inactive) | 31.7 µM (inactive) | 52.2 µM (inactive) | 21.3 µM (inactive) | 36.3 µM (inactive) | 26.1 µM (inactive) | 41.1 µM (inactive) | 31.3 µM (inactive) | 34 µM (inactive) | 66.7 µM (inactive) | 22.6 µM (inactive) | 20.7 µM (inactive) | 78 µM (inactive) | 33 µM (inactive) | > 100 µM (inactive) | 0.318 µM (active) | 77.1 µM (inactive) | 30.5 µM (inactive) | –
2 | CC(C)[S+]1C2=C(CC(C)(C)CC2=O)[N-]c2ccccc21 (stereo unspecified) | > 100 µM (inactive) | > 100 µM (inactive) | > 100 µM (inactive) | > 100 µM (inactive) | – | > 100 µM (inactive) | > 100 µM (inactive) | > 100 µM (inactive) | > 100 µM (inactive) | > 100 µM (inactive) | > 100 µM (inactive) | > 100 µM (inactive) | > 100 µM (inactive) | > 100 µM (inactive) | > 100 µM (inactive) | > 100 µM (inactive) | > 100 µM (inactive) | > 100 µM (inactive) | > 100 µM (inactive) | > 100 µM (inactive)
3 | O=C1CSC2=NCC3(NN12)c1ccccc1-c1ccccc13 | > 10 µM (inactive) | > 10 µM (inactive) | > 10 µM (inactive) | > 10 µM (inactive) | > 10 µM (inactive) | – | > 10 µM (inactive) | > 10 µM (inactive) | > 10 µM (inactive) | > 10 µM (inactive) | > 10 µM (inactive) | > 10 µM (inactive) | > 10 µM (inactive) | – | – | > 10 µM (inactive) | > 10 µM (inactive) | > 10 µM (inactive) | > 10 µM (inactive) | > 10 µM (inactive)
4 | Oc1ccc(Br)cc1/C=N/C1CCCCC1 | 34.8 µM (inactive) | 24.1 µM (inactive) | 20.5 µM (inactive) | 21.4 µM (inactive) | 38.7 µM (inactive) | > 100 µM (inactive) | 28.2 µM (inactive) | 17.7 µM (inactive) | 15.2 µM (inactive) | < 0.01 µM (active) | > 100 µM (inactive) | 65.5 µM (inactive) | > 100 µM (inactive) | > 100 µM (inactive) | 13.1 µM (inactive) | > 100 µM (inactive) | – | 43.3 µM (inactive) | 71.4 µM (inactive) | 21.1 µM (inactive)
5 | CN(C)CCNc1ccc(NCC[N+](C)(C)Cc2ccc([N+](=O)[O-])cc2)c2c1C(=O)c1ccccc1C2=O | 21.6 µM (inactive) | 14.5 µM (inactive) | > 25 µM (inactive) | 14.1 µM (inactive) | – | 17.5 µM (inactive) | > 25 µM (inactive) | – | 13.6 µM (inactive) | 5.56 µM (inactive) | 3.01 µM (inactive) | 7.28 µM (inactive) | > 25 µM (inactive) | > 25 µM (inactive) | 12 µM (inactive) | > 25 µM (inactive) | 6.15 µM (inactive) | > 25 µM (inactive) | – | –
6 | COC(=O)C1=CC(=O)OC1(OO)c1ccccc1 (stereo unspecified) | > 100 µM (inactive) | > 100 µM (inactive) | > 100 µM (inactive) | > 100 µM (inactive) | > 100 µM (inactive) | – | > 100 µM (inactive) | 33.5 µM (inactive) | > 100 µM (inactive) | > 100 µM (inactive) | 38.8 µM (inactive) | > 100 µM (inactive) | > 100 µM (inactive) | > 100 µM (inactive) | > 100 µM (inactive) | > 100 µM (inactive) | 42.1 µM (inactive) | > 100 µM (inactive) | > 100 µM (inactive) | > 100 µM (inactive)
7 | COC(c1ccc(C(C)(C)C)cc1)(c1ccc(C(C)(C)C)cc1)c1ccc(C(C)(C)C)cc1 | 70.5 µM (inactive) | > 100 µM (inactive) | > 100 µM (inactive) | > 100 µM (inactive) | > 100 µM (inactive) | > 100 µM (inactive) | > 100 µM (inactive) | > 100 µM (inactive) | > 100 µM (inactive) | > 100 µM (inactive) | > 100 µM (inactive) | > 100 µM (inactive) | – | > 100 µM (inactive) | > 100 µM (inactive) | > 100 µM (inactive) | > 100 µM (inactive) | > 100 µM (inactive) | > 100 µM (inactive) | > 100 µM (inactive)
8 | COc1ccc(-c2cc(-c3ccccc3)[nH]c(=S)c2C#N)cc1 | 25.4 µM (inactive) | 26.4 µM (inactive) | 29.8 µM (inactive) | 52.2 µM (inactive) | – | 15.3 µM (inactive) | 20.1 µM (inactive) | 22.8 µM (inactive) | 19.9 µM (inactive) | 41.2 µM (inactive) | 61 µM (inactive) | > 10 µM (inactive) | 39.8 µM (inactive) | 62.1 µM (inactive) | 11.9 µM (inactive) | 55.8 µM (inactive) | 32.6 µM (inactive) | 20 µM (inactive) | 25.5 µM (inactive) | 38.6 µM (inactive)
9 | N#CC12CC=C(c3ccccc3)N=C1NC(c1ccccc1)=CC2 (stereo unspecified) | 42.1 µM (inactive) | > 100 µM (inactive) | 48.2 µM (inactive) | 57.5 µM (inactive) | > 100 µM (inactive) | 23.2 µM (inactive) | 35.6 µM (inactive) | 31.6 µM (inactive) | 33.9 µM (inactive) | > 100 µM (inactive) | – | 30.8 µM (inactive) | > 100 µM (inactive) | > 100 µM (inactive) | > 100 µM (inactive) | 52.2 µM (inactive) | 29.9 µM (inactive) | > 100 µM (inactive) | 57.5 µM (inactive) | 29.7 µM (inactive)
10 | O=C(CCCl)NN=C1NCCCCN1 | > 100 µM (inactive) | > 100 µM (inactive) | > 100 µM (inactive) | > 100 µM (inactive) | > 100 µM (inactive) | – | > 100 µM (inactive) | > 100 µM (inactive) | > 100 µM (inactive) | > 100 µM (inactive) | – | > 100 µM (inactive) | > 100 µM (inactive) | > 100 µM (inactive) | > 100 µM (inactive) | > 100 µM (inactive) | > 100 µM (inactive) | > 100 µM (inactive) | > 100 µM (inactive) | > 100 µM (inactive)
11 | COc1ccc(/C=C2\c3cc(OC)c(OC)cc3CCN2C(=O)c2ccccc2)cc1OC | 58.2 µM (inactive) | > 100 µM (inactive) | 27.5 µM (inactive) | 55 µM (inactive) | 46.7 µM (inactive) | 35.4 µM (inactive) | 21.2 µM (inactive) | 32.1 µM (inactive) | 46.5 µM (inactive) | 70.1 µM (inactive) | 54 µM (inactive) | 23.9 µM (inactive) | 35.2 µM (inactive) | 55 µM (inactive) | 35.7 µM (inactive) | 4.09 µM (inactive) | 30.8 µM (inactive) | 46.7 µM (inactive) | 28.1 µM (inactive) | –
12 | COc1ccc(-c2nc(N)c(C#N)c3c2CCS(=O)(=O)c2ccc(C)cc2-3)cc1OC | 28.4 µM (inactive) | 31.6 µM (inactive) | 74.3 µM (inactive) | 29 µM (inactive) | – | 23.3 µM (inactive) | 15.1 µM (inactive) | 10.7 µM (inactive) | 11.9 µM (inactive) | 50.2 µM (inactive) | 27 µM (inactive) | 27.8 µM (inactive) | – | 19.6 µM (inactive) | 39.6 µM (inactive) | – | 0.252 µM (active) | 55.2 µM (inactive) | 28.2 µM (inactive) | 25.8 µM (inactive)
13 | CN(C)C(=S)N/N=C(\C(=N/NC(=S)N(C)C)c1ccccn1)c1ccccn1 | 11.4 µM (inactive) | 8.41 µM (inactive) | 7.14 µM (inactive) | 4.21 µM (inactive) | 25.5 µM (inactive) | 14.8 µM (inactive) | 10.1 µM (inactive) | 8.28 µM (inactive) | 4.26 µM (inactive) | 5.41 µM (inactive) | 14.8 µM (inactive) | 2.17 µM (inactive) | 5.21 µM (inactive) | 14 µM (inactive) | 3.85 µM (inactive) | 12 µM (inactive) | – | 16.4 µM (inactive) | 2.56 µM (inactive) | 7.28 µM (inactive)
14 | Cc1ccc(O)c(-c2cc(-c3cccc(Cl)c3)c(C#N)c(N)n2)c1 | 20.9 µM (inactive) | 6.93 µM (inactive) | 31 µM (inactive) | 44.5 µM (inactive) | 19.5 µM (inactive) | – | 13.9 µM (inactive) | 21.5 µM (inactive) | 23.3 µM (inactive) | 20.9 µM (inactive) | 29.4 µM (inactive) | 15.7 µM (inactive) | 19.3 µM (inactive) | 24 µM (inactive) | 38.5 µM (inactive) | 14 µM (inactive) | 10.7 µM (inactive) | – | 19.6 µM (inactive) | 15.9 µM (inactive)
15 | COc1cc(CC2CCc3nc(N)nc(N)c3C2)cc(OC)c1OC (stereo unspecified) | 0.195 µM (active) | 0.131 µM (active) | > 32.7 µM (inactive) | 1.79 µM (inactive) | 0.966 µM (active) | 20.7 µM (inactive) | 4.24 µM (inactive) | 5.3 µM (inactive) | 0.13 µM (active) | 31.1 µM (inactive) | – | 1.6 µM (inactive) | 0.0422 µM (active) | 1.36 µM (inactive) | 8.85 µM (inactive) | 0.701 µM (active) | 0.236 µM (active) | > 36.5 µM (inactive) | 0.0571 µM (active) | > 45.6 µM (inactive)
